Publication PMC6017654, “Ionic Liquid-Promoted Synthesis of Novel Chromone-Pyrimidine Coupled Derivatives, Antimicrobial Analysis, Enzyme Assay, Docking Study and Toxicity Study” (Molecules : A Journal of Synthetic Chemistry and Natural …, 2018)
≈ marks a conversion by molar mass, not a printed value.

Legend:
Swiss albino mice = assay: In vivo acute oral toxicity study and gross behavioral study (OECD guideline No. 425)
Method: The in vivo acute oral toxicity and gross behavioral study results of the newly synthesized compounds 6c and 6f are as listed in Table 12 [26].
Each group, consisting of six Swiss albino mice (18–22 gm weight, overnight fasted), were kept in colony cage at 25 ± 2 °C with 55% relative humidity and 12 h of light and dark cycle. A specified dose of 100, 250, 500, 750, 1000, 1500 and 2000 mg/kg body weight of mice was administered orally as a single dose. The acute toxic symptoms and the behavioral changes produced by the test compounds were observed continuously for 4 h periods at 8th, 12th and 24th h on set of toxic symptoms and the gross behavioral changes were also recorded. These animals were maintained for further 10 days with observation made daily. The in vivo acute oral toxicity study was carried out at animal house at the Y.B. Chavan College of Pharmacy, Aurangabad IAEC approval number CPCSEA/IAEC/P’col-52/2015-16/115 [26].

Aspergillus fumigates = assay: In vitro antifungal activity (MIC100, CLSI/NCCLS); type: cell-based; conditions: A. fum., average of three readings, read-out: MIC 100
Method: (§1) The newly synthesized derivatives 4(a–f) and 6(a–f) were screened for their in vitro antifungal activity against different yeast and filamentous fungal pathogens. Minimum inhibitory concentration (MIC100) values for in vitro antifungal activity were determined by the methods recommended by National Committee for Clinical Laboratory Standards (NCCLS). Miconazole was used as standard drug. Dimethyl sulfoxide (DMSO) was used as solvent control.
(§2) In vitro antifungal activity was determined as per CLSI (formerly, NCCLS) guidelines. […] The medium yeast nitrogen base was dissolved in phosphate buffer pH 7 and it was autoclaved at 110 °C for 10 min. With each set a growth control without the antifungal agent and solvent control DMSO were included. The fungal strains were freshly sub cultured on to Sabouraud dextrose agar (SDA) and incubated at 25 °C for 72 h. The fungal cells were suspended in sterile distilled water and diluted to get 10^5 cells/mL. Further, ten microlitres of the standardized suspension was inoculated onto the control plates and the media incorporated with the antifungal agents. The inoculated plates were incubated at 25 °C for 48 h. The readings were taken at the end of 48 h and 72 h. The MIC was the lowest concentration of drug preventing growth of macroscopically visible colonies on drug containing plates when there was visible growth on the drug free control plates.

Aspergillus niger = assay: In vitro antifungal activity (MIC100, CLSI/NCCLS); type: cell-based; conditions: A. nig., average of three readings, read-out: MIC 100
Method: as §1, §2

Candida glabrata = assay: In vitro antifungal activity (MIC100, CLSI/NCCLS); type: cell-based; conditions: Nakaseomyces glabratus; C. glab.; average of three readings; read-out: MIC 100
Method: as §1, §2

Candida albicans = assay: In vitro antifungal activity (MIC100, CLSI/NCCLS); type: cell-based; conditions: C. alb., average of three readings, read-out: MIC 100
Method: as §1, §2

Fusarium oxysporum = assay: In vitro antifungal activity (MIC100, CLSI/NCCLS); type: cell-based; conditions: F. oxy., average of three readings, read-out: MIC 100
Method: as §1, §2

Cryptococcus neoformans = assay: In vitro antifungal activity (MIC100, CLSI/NCCLS); type: cell-based; conditions: C. neo., average of three readings, read-out: MIC 100
Method: as §1, §2

A. flavus = assay: In vitro antifungal activity (MIC100, CLSI/NCCLS); type: cell-based; conditions: Aspergillus flavus; A. fla.; average of three readings; read-out: MIC 100
Method: as §1, §2

COc1ccc2occ(C3NC(=S)NC(C)=C3C(=O)NN)c(=O)c2c1 (stereo not drawn) [Compound 6f, 4-(6-Methoxy-4-oxo-4H-chromen-3-yl)-6-methyl-2-thioxo-1,2,3,4-tetrahydropyrimidine-5-carbohydrazide]
No. of Deaths (Swiss albino mice; Swiss albino mice, single oral dose 100 to 2000 mg/kg): N
lethal dose (Swiss albino mice; mice, oral, single dose, no mortality up to 2000 mg/kg): above 2000 mg/kg body weight
MIC (Aspergillus fumigates): 33 µg/mL (≈ 91.6 µM)
MIC (Aspergillus niger): 16 µg/mL (≈ 44.4 µM)
MIC (Candida glabrata): 25 µg/mL (≈ 69.4 µM)
MIC (Candida albicans): 24 µg/mL (≈ 66.6 µM)
MIC (Fusarium oxysporum): 28 µg/mL (≈ 77.7 µM)
MIC (Cryptococcus neoformans): 15 µg/mL (≈ 41.6 µM)
MIC (A. flavus): 15 µg/mL (≈ 41.6 µM)
